How the values were obtained:
Format in all cases: cell-based
H358 cells (G12C) = experiment: Cell viability assay (CellTiter-Glo), H358 cells; details: Homo sapiens, NCI-H358, 72 h; H358 cells, 3 days incubation, CellTiter-Glo luminescence; read-out: Inhibition of Cancerous Cells IC50 H358 (G12C)
Method in brief: (§1)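 Each cell line is treated with compound for 3 days at 37 °C under 5% CO2 in its own medium containing 2.5% FBS. ATP-based CellTiter-Glo luminescence, measured after 10 min shaking, serves as the viability signal relative to DMSO control.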

AsPC-1 cells (G12D) = experiment: Cell viability assay (CellTiter-Glo), AsPC-1 cells; details: Homo sapiens, ASPC1, 72 h, 3 days incubation, CellTiter-Glo luminescence, read-out: Inhibition of Cancerous Cells IC50 AsPC-1 (G12D)
Protocol: H358, H23, SW48, and AsPC-1 cells were cultured in RPMI 1640 media supplemented with 10% fetal bovine serum, streptomycin, and penicillin. Lovo and SW480 cells were cultured in DMEM media supplemented with 10% fetal bovine serum, streptomycin, and penicillin. The cell lines were plated in their respective medium supplemented with 2.5% fetal bovine serum, streptomycin, and penicillin. All cell lines were plated in white walled 96-well plates at 2,000 cells/well or 384-well plates at 500 cells/well, except Lovo, which were plated at 4,000 or 1,000 cells/well, respectively. The cells were incubated in DMSO (control) or a compound for 3 days at 37° C. under 5% CO2. A CELLTITER-GLO® reagent (100 μL) was then added to each well. After a 10 min incubation with shaking, luminescence was measured using an ENVISION® multimode plate reader.

SW48 cells (wt) = experiment: Cell viability assay (CellTiter-Glo), SW48 cells; details: Homo sapiens, 72 h; SW48 cells, 3 days incubation, CellTiter-Glo luminescence; read-out: Inhibition of Cancerous Cells IC50 SW48 (wt)
Method in brief: as §1

SW480 cells (G12V) = experiment: Cell viability assay (CellTiter-Glo), SW480 cells; details: Homo sapiens, 72 h; SW480 cells, 3 days incubation, CellTiter-Glo luminescence; read-out: Inhibition of Cancerous Cells IC50 SW480 (G12V)
Method in brief: as §1

Lovo cells (G13D) = experiment: Cell viability assay (CellTiter-Glo), Lovo cells; details: Homo sapiens, 72 h; Lovo cells, 3 days incubation, CellTiter-Glo luminescence; read-out: Inhibition of Cancerous Cells IC50 Lovo (G13D)
Method in brief: as §1

SMILES | IC50 (H358 cells (G12C)) [µM] | IC50 (AsPC-1 cells (G12D)) [µM] | IC50 (SW48 cells (wt)) [µM] | IC50 (SW480 cells (G12V)) [µM] | IC50 (Lovo cells (G13D)) [µM]
CN[C@@H](C)C(=O)N[C@H](C(=O)N1C[C@@H](NC(=O)CCCCCCCCCCCCOc2cc3nc(C)nc(N[C@H](C)c4cccc(Br)c4)c3cc2OC)C[C@H]1C(=O)N[C@@H]1CCCc2ccccc21)C1CCCCC1 [Compound B10, (2S,4S)-4-(13-((4-(((R)-1-(3-Bromophenyl)ethyl)amino)-6-methoxy-2-methyl-quinazolin-7-yl)oxy)tridecanamido)-1-((S)-2-cyclohexyl-2-((S)-2-(methylamino)propanamido)-acetyl)-N—((R)-1,2,3,4-tetrahydronaphthalen-1-yl)pyrrolidine-2-carboxamide] | 1.6 | 1.5 | 1.3 | 0.72 | 0.67
COc1cc2c(N[C@H](C)c3cccc(Br)c3)nc(C)nc2cc1OCCCCCCCCNC(=O)[C@H](CC(C)C)NC(=O)[C@@H](O)[C@H](N)Cc1ccccc1 [Compound B7, (S)-2-((2S,3R)-3-Amino-2-hydroxy-4-phenylbutanamido)-N-(8-((4-(((R)-1-(3-bromophenyl)ethyl)amino)-6-methoxy-2-methylquinazolin-7-yl)oxy)octyl)-4-methylpentanamide] | 1.3 | 1.2 | 0.92 | 0.61 | 0.68
CN[C@@H](C)C(=O)N[C@H](C(=O)N1C[C@@H](NC(=O)CCCCCCOc2cc3nc(C)nc(N[C@H](C)c4cccc(Br)c4)c3cc2OC)C[C@H]1C(=O)N[C@@H]1CCCc2ccccc21)C1CCCCC1 [Compound B5, (2S,4S)-4-(7-((4-(((R)-1-(3-bromophenyl)ethyl)amino)-6-methoxy-2-methyl-quinazolin-7-yl)oxy)heptanamido)-1-((S)-2-cyclohexyl-2-((S)-2-(methylamino)propanamido)-acetyl)-N—((R)-1,2,3,4-tetrahydronaphthalen-1-yl)pyrrolidine-2-carboxamide] | 0.65 | 1.5 | 0.75 | 0.44 | 0.77
COc1cc2c(N[C@H](C)c3cccc(Br)c3)nc(C)nc2cc1OCCCCCN1CCN(C(=O)CNc2cc3c(cc2F)C(=O)N(C2CCC(=O)NC2=O)C3)CC1 (stereo partly drawn) [Compound A32, 3-(5-((2-(4-(5-((4-(((R)-1-(3-Bromophenyl)ethyl)amino)-6-methoxy-2-methyl-quinazolin-7-yl)oxy)pentyl)piperazin-1-yl)-2-oxoethyl)amino)-6-fluoro-1-oxoisoindolin-2-yl)-piperidine-2,6-dione] | > 10 | > 10 | 0.47 | 4.4 | 0.06
CN[C@@H](C)C(=O)N[C@H](C(=O)N1CCC[C@H]1c1nc(C(=O)c2cccc(OCCCCCCCCCCCCOc3cc4nc(C)nc(N[C@H](C)c5cccc(Br)c5)c4cc3OC)c2)cs1)C1CCCCC1 [Compound B4, (S)—N—((S)-2-((S)-2-(4-(3-((12-((4-(((R)-1-(3-Bromophenyl)ethyl)amino)-6-methoxy-2-methylquinazolin-7-yl)oxy)dodecyl)oxy)benzoyl)thiazol-2-yl)pyrrolidin-1-yl)-1-cyclohexyl-2-oxoethyl)-2-(methylamino)propanamide] | 7.6 | > 10 | > 10 | > 10 | 4
COc1cc2c(N[C@H](C)c3cccc(Br)c3)nc(C)nc2cc1OCCCCCCC(=O)N1CCC(c2cc(F)cc3c2CN(C2CCC(=O)NC2=O)C3=O)CC1 (stereo partly drawn) [Compound A59, 3-(4-(1-(7-((4-(((R)-1-(3-Bromophenyl)ethyl)amino)-6-methoxy-2-methyl-quinazolin-7-yl)oxy)heptanoyl)piperidin-4-yl)-6-fluoro-1-oxoisoindolin-2-yl)piperidine-2,6-dione] | > 10 | > 10 | 5.3 | 4.7 | 4.9
COc1cc2c(N[C@H](C)c3cccc(Br)c3)nc(C)nc2cc1OCCN1CCC(CN2CCC(c3cc(F)cc4c3CN(C3CCC(=O)NC3=O)C4=O)CC2)CC1 (stereo partly drawn) [Compound A65, 3-(4-(1-((1-(2-((4-(((R)-1-(3-Bromophenyl)ethyl)amino)-6-methoxy-2-methyl-quinazolin-7-yl)oxy)ethyl)piperidin-4-yl)methyl)piperidin-4-yl)-6-fluoro-1-oxoisoindolin-2-yl)-piperidine-2,6-dione] | 1.6 | 3.3 | 0.97 | 1.1 | 1.1
COc1cc2c(N[C@H](C)c3cccc(Br)c3)nc(C)nc2cc1OCCCCN1CCN(C(=O)CNc2cc3c(cc2F)C(=O)N(C2CCC(=O)NC2=O)C3)CC1 (stereo partly drawn) [Compound A30, 3-(5-((2-(4-(4-((4-(((R)-1-(3-Bromophenyl)ethyl)amino)-6-methoxy-2-methyl-quinazolin-7-yl)oxy)butyl)piperazin-1-yl)-2-oxoethyl)amino)-6-fluoro-1-oxoisoindolin-2-yl)-piperidine-2,6-dione] | 4.2 | 7.8 | 0.64 | 3.9 | 0.04
COc1cc2c(N[C@H](C)c3cccc(Br)c3)nc(C)nc2cc1OCCCCCCC(=O)N1CCC(c2cc3c(cc2F)C(=O)N(C2CCC(=O)NC2=O)C3)CC1 (stereo partly drawn) [Compound A60, 3-(5-(1-(7-((4-(((R)-1-(3-Bromophenyl)ethyl)amino)-6-methoxy-2-methyl-quinazolin-7-yl)oxy)heptanoyl)piperidin-4-yl)-6-fluoro-1-oxoisoindolin-2-yl)piperidine-2,6-dione] | > 10 | 8.4 | 3.8 | 4 | 4.3
COc1cc2c(N[C@H](C)c3cccc(Br)c3)nc(C)nc2cc1OCCCCCCN1CCN(CCCc2cc3c(cc2F)C(=O)N(C2CCC(=O)NC2=O)C3)CC1 (stereo partly drawn) [Compound A42, 3-(5-(3-(4-(6-((4-(((R)-1-(3-Bromophenyl)ethyl)amino)-6-methoxy-2-methyl-quinazolin-7-yl)oxy)hexyl)piperazin-1-yl)propyl)-6-fluoro-1-oxoisoindolin-2-yl)piperidine-2,6-dione] | 0.89 | 1.4 | 1 | 0.48 | 0.52
COc1cc2c(N[C@H](C)c3cccc(Br)c3)nc(C)nc2cc1OCCCN1CCC2(CC1)CCN(c1cc3c(cc1F)C(=O)N(C1CCC(=O)NC1=O)C3)CC2 (stereo partly drawn) [Compound A44, 3-(5-(9-(3-((4-(((R)-1-(3-Bromophenyl)ethyl)amino)-6-methoxy-2-methyl-quinazolin-7-yl)oxy)propyl)-3,9-diazaspiro[5.5]undecan-3-yl)-6-fluoro-1-oxoisoindolin-2-yl)piperidine-2,6-dione] | 1.2 | 0.98 | 0.61 | 0.44 | 0.53
CNCc1ccccc1-c1csc([C@@H](C)Nc2nc(C)nc3c(CCCCCCCN4CCC(c5cc(F)cc6c5CN(C5CCC(=O)NC5=O)C6=O)CC4)c(OC)c(OC)cc23)c1 (stereo partly drawn) [Compound A54, 3-(4-(1-(7-(6,7-Dimethoxy-2-methyl-4-(((R)-1-(4-(2-((methylamino)methyl)-phenyl)thiophen-2-yl)ethyl)amino)quinazolin-8-yl)heptyl)piperidin-4-yl)-6-fluoro-1-oxoisoindolin-2-yl)piperidine-2,6-dione] | 0.36 | – | 0.2 | 0.24 | 0.13
CNCc1ccccc1-c1csc([C@H](C)Nc2nc(C)nc3cc(OCCCCCCCN4CCC(c5cc(F)cc6c5CN(C5CCC(=O)N(C)C5=O)C6=O)CC4)c(OC)cc23)c1 (stereo partly drawn) [Compound A53, 3-(6-Fluoro-4-(1-(7-((6-methoxy-2-methyl-4-(((S)-1-(4-(2-((methylamino)-methyl)phenyl)thiophen-2-yl)ethyl)amino)quinazolin-7-yl)oxy)heptyl)piperidin-4-yl)-1-oxoisoindolin-2-yl)-1-methylpiperidine-2,6-dione] | 0.23 | – | 0.17 | 0.17 | 0.068
COc1cc2c(N[C@H](C)c3cccc(Br)c3)nc(C)nc2cc1OCCCCCCCCCCCCCCCC(=O)NCc1scc2c1CN(C1CCC(=O)NC1=O)C2=O (stereo partly drawn) [Compound A49, 16-((4-(((R)-1-(3-Bromophenyl)ethyl)amino)-6-methoxy-2-methylquinazolin-7-yl)oxy)-N-((5-(2,6-dioxopiperidin-3-yl)-4-oxo-5,6-dihydro-4H-thieno[3,4-c]pyrrol-1-yl)methyl)-hexadecanamide] | > 10 | – | 0.67 | 2.8 | 0.42

— patent US20240025863A1, “SOS1 PROTEIN DEGRADERS, PHARMACEUTICAL COMPOSITIONS THEREOF, AND THEIR THERAPEUTIC APPLICATIONS” (BioTheryX, Inc., priority 2020, published 2024)
